# Data as given in US7498406B2, “Substantially cell membrane impermeable compound and use thereof” (priority 1999, dated 2009).
# Tests used:
# BAE [1] = assay: Proliferation of cultured cells, 72 hr; format: cell-based, bovine; conditions: for IC50: 72 hr
# Protocol: (§1) BCE (Folkman et al. 1979), BAE, BxPC-3 (ATCC, Bethesda, Md.), HT1080 (Jiang et al., 1999), 3T3 (ATCC, Bethesda, Md.) and BVSM (Hogg et al., 1997) cells were harvested and cultured as indicated. Cells (0.5 mL of 30,000 or 100,000 cells per mL) were seeded into gelatinized 24-well culture plates (Corning Costar, Corning, N.Y.) in Dulbecco's Modified Eagle's Medium (DMEM, JHR Bioscience, Lenexa, Kans.) containing 10% fetal calf serum (FCS, Intergen Comp., Purchase, N.Y.) and 1% Glutamine Pen-Strep (GPS, Irvine Scientific, Santa Ana, Va.) and allowed to attach for 24 hr in 10% CO2 at 37° C. The media was then replaced with DMEM and 1% GPS containing 0 to 1 mM GSAO or GSAA and either 5% bovine calf serum (BCS, HyClone, Logan, Utah) and 1 ng per mL FGF-2 (Genzyme, Cambridge, Mass.) or 5% BCS and 10 ng per mL VEGF (Genzyme, Cambridge, Mass.) for BCE cells, 5% or 10% BCS for BAE cells, 5% BCS for BVSM cells, and 5% FCS for BxPC-3, HT1080 and 3T3 cells. Cells were cultured for 0 to 72 hr in 10% CO2 at 37° C. then dispersed in trypsin/EDTA (GibcoBRL, Granc Island, N.Y.), resuspended in Coulter balanced electrolyte solution and counted with a Z1 Coulter counter (Coulter Corp., Miami, Fla.) in all experiments there were two control wells containing DMEM with 1% GPS and either 5% BCS for BCE cells, 2% BCS for BAE and BVSM cells, or 2% FCS for BxPC-3, HT1080 and 3T3 cells. These wells represented no to limited proliferation.
# BAE [2] = assay: Viability of cultured cells, 72 hr; format: cell-based, bovine
# Protocol: as §1, with “These wells represented no to limited proliferation.” left out
# BCE [3] = assay: Proliferation of cultured cells, 72 hr; format: cell-based, bovine; conditions: for IC50: 72 hr
# Protocol: (§2) FIG. 18. Inhibition of proliferation and reduction in viability of BCE cells by GSAO. 15,000 (part A and B) or 50,000 (part C and D) BCE cells per well were seeded into gelatinised 24-well culture plates and allowed to attach for 24 hr (part A, B and D) or 72 hr (part C). The media was then replaced with DMEM containing 5% BCS and 0 to 1 mM GSAO or GSAA and either 1 ng per mL FGF-2 (part A) or 10 ng per mL VEGF (part B). In part D, the media was replaced with DMEM containing 5% BCS and 1 ng per mL FGF-2 and either 10 μM GSAO or GSAA. In part C, the media was replaced with DMEM containing 5% BCS and 0 to 1 mM GSAO or GSAA. Cells were cultured for 72 hr in parts A, B and C or for discrete times up to 48 hr in part D and then dispersed and counted. The dotted line in parts A, B and C indicate the cell number in control wells containing DMEM and 5% BCS which represented no to limited proliferation. The dotted line in part D represents no change in cell number over the 48 hr. The data points and errors represent the mean and range of duplicate wells.
# as §1, with “The media was then replaced with DMEM and 1% GPS containing 0 to 1 mM GSAO or GSAA and either 5% bovine calf serum (BCS, HyClone, Logan, Utah) and 1 ng per mL FGF-2 (Genzyme, Cambridge, Mass.) or 5% BCS and 10 ng per mL VEGF (Genzyme, Cambridge, Mass.) for BCE cells, 5% or 10% BCS for BAE cells, 5% BCS for BVSM cells, and 5% FCS for BxPC-3, HT1080 and 3T3 cells.” left out, “These wells represented no to limited proliferation.” left out
# BxPC-3 tumours = assay: Tumour growth in mice, subcutaneous administration; format: in vivo, SCID mice; conditions: for inhibition of the rate of BxPC-3 tumour growth: subcutaneous
# Protocol: FIG. 23. Inhibition of human pancreatic tumour growth by GSAO. BxPC-3 tumours were established in the proximal midline of female 7 to 9 week old SCID mice. When the tumours were ˜0.1 cm^3 in volume the mice were randomised into two groups and treated with either GSAA or GSAO at doses of 2 (part A) or 10 (part B) mg per kg per day in 0.2 mL of PBS containing 100 mM glycine. The compounds were administered subcutaneously at a site distant from the tumour. Tumour volume and animal weight was measured every 3 days. The GSAO/GSAA tumour volume ratio at day 26 of treatment with 2 mg per kg per day was 0.34 (part A). The GSAO/GSAA tumour volume ratio at day 31 of treatment with 10 mg per kg per day was 0.09 (part B). There were 4 mice per group in part A and 4 mice treated with GSAA and 5 with GSAO in part B. The mice and excised tumours from the experiment described in Part B at day 31 of treatment are shown in Part C. The data points and errors represent the mean and SE of the tumour volumes.
# Female 7 to 9 week old SCID or C57Bl6/J mice were used (Massachusetts General Hospital, Boston, Mass.). Mice were held in groups of 3 to 5 at a 12 hour day and night cycle and were fed with animal chow and water ad libidum. SCID mice were anaesthetised by inhalation of isoflurane, the dorsal skin shaved and cleaned with ethanol, and a suspension of 2.5×10^6 BxPC-3 or HT1080 cells in 0.2 mL of DMEM was injected subcutaneously in the proximal midline. C57Bl6/J mice with Lewis lung carcinomas of 0.6-1.2 cm^3 volumes were sacrificed and the skin overlying the tumour was cleaned with betadine and ethanol. Tumour tissue was excised under aseptic conditions and a suspension of tumour cells in 0.9% saline was made by passage of tumour tissue through a sieve and a series of sequentially smaller 22- to 30-gauge hypodermic needles. C57Bl6/J mice were anaesthetised and prepared as for SCID mice and a suspension of Lewis lung carcinoma cells in 0.2 mL of saline was injected subcutaneously in the proximal midline. Tumours were allowed to establish and grow to a size of ˜0.1 cm^3 after which they were randomised into two groups. The tumours were measured in two diameters and tumour volume was calculated using the relationship, tumour volume=a×b^2×0.52, where a is the longest and b the shortest diameters in cm. Animals were treated with either GSAA or GSAO at doses of 2 or 10 mg per kg per day in 0.2 mL of PBS containing 100 mM glycine. The compounds were administered subcutaneously at a site distant from the tumour. Tumour volume and animal weight was measured every 3 days. The tumours were excised and weighed when the animals were sacrificed.
# BCE [4] = assay: Viability of cultured cells, 72 hr; format: cell-based, bovine
# Protocol: as §2
# as §1, with “The media was then replaced with DMEM and 1% GPS containing 0 to 1 mM GSAO or GSAA and either 5% bovine calf serum (BCS, HyClone, Logan, Utah) and 1 ng per mL FGF-2 (Genzyme, Cambridge, Mass.) or 5% BCS and 10 ng per mL VEGF (Genzyme, Cambridge, Mass.) for BCE cells, 5% or 10% BCS for BAE cells, 5% BCS for BVSM cells, and 5% FCS for BxPC-3, HT1080 and 3T3 cells.” left out, “These wells represented no to limited proliferation.” left out
smiles,measurement,setting,value
"N[C@@H](CCC(=O)N[C@@H](CSCC(=O)Nc1ccc([As](=O)(O)O)cc1)C(=O)NCC(=O)O)C(=O)O [GSAA, 4-(N-(S-glutathionylacetyl)amino)phenylarsonic acid, reference compound]",effect on proliferation of BAE cells,BAE [1]; not shown,did not effect either proliferation or viability
same,effect on viability of BAE cells,BAE [2]; not shown,did not effect either proliferation or viability
same,effect on proliferation of BCE cells,"BCE [3]; highest concentration used, 1 mM",only a marginal effect on proliferation
same,inhibition of the rate of BxPC-3 tumour growth,BxPC-3 tumours; 2 mg per kg per day,no effect
same,inhibition of the rate of BxPC-3 tumour growth,BxPC-3 tumours; 10 mg per kg per day,< 20%
same,effect on viability of BCE cells,BCE [4]; 0 to 1 mM,no significant effect on viability
"NC(CCC(=O)NC(CSCC(=O)Nc1ccc([As]=O)cc1)C(=O)NCC(=O)O)C(=O)O (centres unmarked) [GSAO, 4-(N-(S-glutathionylacetyl)amino)-phenylarsenoxide]",IC50,BAE [1]; 5% BCS,~20 nM
same,IC50,BAE [1]; 10% BCS,~200 nM
same,IC50,"BAE [2]; Bos taurus, 72 h, 10% BCS, >90% confluent",~10000 nM
same,IC50,BCE [3]; 5% BCS + 1 ng/mL FGF-2,~100 nM
same,IC50,BCE [3]; 5% BCS + 10 ng/mL VEGF,~50 nM
same,inhibition of the rate of BxPC-3 tumour growth,BxPC-3 tumours; 2 mg per kg per day,~70%
same,inhibition of the rate of BxPC-3 tumour growth,BxPC-3 tumours; 10 mg per kg per day,> 90%
same,GSAO/GSAA tumour volume ratio,"BxPC-3 tumours; day 26 of treatment, 2 mg per kg per day",0.34
same,GSAO/GSAA tumour volume ratio,"BxPC-3 tumours; day 31 of treatment, 10 mg per kg per day",0.09
same,time dependence of the decrease in viability,"BCE [4]; 10 μM, 1 ng per mL FGF-2, up to 48 hr",no decrease in viability after 8 hours
same,IC50,"BCE [4]; 5% BCS + 10 ng/mL VEGF, >90% confluent, 72 hr",~3000 nM
